Where two headings read alike, the source gives them in different places.
Experiments:
Type in all cases: cell-based
[1] = biological target: T1, human TLR8 (Homo sapiens, UniProt Q9NR97); experiment: TLR8 inhibition reporter assay (HEK-Blue cells, secreted embryonic alkaline phosphatase reporter); conditions: HEK-Blue cells overexpressing human TLR8, stimulated with R848 15.9 μM; read-out: TLR 8 IC50
T1 construct: host or cells: HEK-Blue cells (HEK293-derived reporter line)
T1 sequence (Q9NR97 27-1041): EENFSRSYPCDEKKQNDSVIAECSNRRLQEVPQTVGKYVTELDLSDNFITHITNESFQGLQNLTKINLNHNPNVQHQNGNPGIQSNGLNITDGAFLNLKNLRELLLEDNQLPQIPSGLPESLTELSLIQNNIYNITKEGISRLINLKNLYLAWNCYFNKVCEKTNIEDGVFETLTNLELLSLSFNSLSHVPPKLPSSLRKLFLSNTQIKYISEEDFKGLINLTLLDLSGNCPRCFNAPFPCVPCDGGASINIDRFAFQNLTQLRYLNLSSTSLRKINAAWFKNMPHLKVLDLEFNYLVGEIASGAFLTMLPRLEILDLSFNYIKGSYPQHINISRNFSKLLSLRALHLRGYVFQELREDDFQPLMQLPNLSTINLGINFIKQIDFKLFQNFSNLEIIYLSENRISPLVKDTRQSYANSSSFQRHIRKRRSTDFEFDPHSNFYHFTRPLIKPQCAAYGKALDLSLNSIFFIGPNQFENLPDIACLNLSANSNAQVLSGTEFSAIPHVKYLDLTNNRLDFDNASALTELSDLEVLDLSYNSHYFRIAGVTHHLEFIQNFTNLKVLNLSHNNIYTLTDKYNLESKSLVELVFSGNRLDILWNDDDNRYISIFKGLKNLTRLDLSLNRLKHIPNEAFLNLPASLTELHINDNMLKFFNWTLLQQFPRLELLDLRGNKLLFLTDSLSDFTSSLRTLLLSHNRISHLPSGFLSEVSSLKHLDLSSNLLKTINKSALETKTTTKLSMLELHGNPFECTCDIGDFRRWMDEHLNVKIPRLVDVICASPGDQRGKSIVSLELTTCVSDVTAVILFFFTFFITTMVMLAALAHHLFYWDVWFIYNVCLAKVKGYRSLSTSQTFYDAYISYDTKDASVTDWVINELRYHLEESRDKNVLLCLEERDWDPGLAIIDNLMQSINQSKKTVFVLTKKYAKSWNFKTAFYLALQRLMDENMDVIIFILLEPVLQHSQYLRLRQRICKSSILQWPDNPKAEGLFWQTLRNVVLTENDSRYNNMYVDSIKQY
In short: (§1)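 Steps: seed receptor-specific HEK-Blue cells; add compound, 0.05 nM–50 μM; wait 30 min at room temperature; add final gardiquimod 7.5 μM, R848 15.9 μM or ODN2006 5 nM for TLR7, TLR8 or TLR9; incubate 22 h at 37 °C; detect NF-κB/AP-1-driven SEAP.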

[2] = biological target: T2, human TLR7 (Homo sapiens, UniProt Q9NYK1); experiment: TLR7 inhibition reporter assay (HEK-Blue cells, secreted embryonic alkaline phosphatase reporter); conditions: HEK-Blue cells overexpressing human TLR7, stimulated with gardiquimod 7.5 μM; read-out: TLR 7 IC50
T2 construct: host or cells: HEK-Blue cells (HEK293-derived reporter line)
T2 sequence (Q9NYK1 27-1049): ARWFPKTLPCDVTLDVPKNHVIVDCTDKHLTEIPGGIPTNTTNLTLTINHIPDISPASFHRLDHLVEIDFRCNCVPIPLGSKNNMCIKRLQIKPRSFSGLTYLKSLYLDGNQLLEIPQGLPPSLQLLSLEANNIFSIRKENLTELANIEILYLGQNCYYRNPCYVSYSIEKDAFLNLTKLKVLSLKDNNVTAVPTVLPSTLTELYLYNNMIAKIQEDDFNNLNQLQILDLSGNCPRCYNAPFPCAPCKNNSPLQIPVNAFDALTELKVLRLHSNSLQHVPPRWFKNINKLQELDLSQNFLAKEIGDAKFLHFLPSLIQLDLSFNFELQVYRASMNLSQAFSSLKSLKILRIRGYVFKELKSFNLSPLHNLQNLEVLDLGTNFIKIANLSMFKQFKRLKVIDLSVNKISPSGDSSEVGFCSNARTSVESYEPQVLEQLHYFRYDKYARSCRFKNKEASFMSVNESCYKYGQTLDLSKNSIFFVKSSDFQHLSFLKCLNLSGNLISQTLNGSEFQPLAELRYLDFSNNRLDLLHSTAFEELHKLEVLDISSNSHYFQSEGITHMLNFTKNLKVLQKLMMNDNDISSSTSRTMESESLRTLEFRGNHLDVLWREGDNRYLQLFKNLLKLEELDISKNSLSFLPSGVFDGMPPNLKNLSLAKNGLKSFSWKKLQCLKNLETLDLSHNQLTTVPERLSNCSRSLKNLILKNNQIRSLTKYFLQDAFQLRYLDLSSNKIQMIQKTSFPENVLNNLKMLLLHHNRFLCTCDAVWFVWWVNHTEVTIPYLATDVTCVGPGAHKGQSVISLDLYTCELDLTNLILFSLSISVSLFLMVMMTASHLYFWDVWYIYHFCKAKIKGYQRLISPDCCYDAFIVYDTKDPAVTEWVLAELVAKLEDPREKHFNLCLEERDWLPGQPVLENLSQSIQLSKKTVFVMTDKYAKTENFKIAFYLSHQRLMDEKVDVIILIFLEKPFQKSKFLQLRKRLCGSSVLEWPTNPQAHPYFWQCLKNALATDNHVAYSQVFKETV
In short: as §1

[3] = biological target: T3, human TLR9 (Homo sapiens, UniProt Q9NR96); experiment: TLR9 inhibition reporter assay (HEK-Blue cells, secreted embryonic alkaline phosphatase reporter); conditions: HEK-Blue cells overexpressing human TLR9, stimulated with ODN2006 5 nM
T3 construct: host or cells: HEK-Blue cells (HEK293-derived reporter line)
T3 sequence (Q9NR96 26-1032): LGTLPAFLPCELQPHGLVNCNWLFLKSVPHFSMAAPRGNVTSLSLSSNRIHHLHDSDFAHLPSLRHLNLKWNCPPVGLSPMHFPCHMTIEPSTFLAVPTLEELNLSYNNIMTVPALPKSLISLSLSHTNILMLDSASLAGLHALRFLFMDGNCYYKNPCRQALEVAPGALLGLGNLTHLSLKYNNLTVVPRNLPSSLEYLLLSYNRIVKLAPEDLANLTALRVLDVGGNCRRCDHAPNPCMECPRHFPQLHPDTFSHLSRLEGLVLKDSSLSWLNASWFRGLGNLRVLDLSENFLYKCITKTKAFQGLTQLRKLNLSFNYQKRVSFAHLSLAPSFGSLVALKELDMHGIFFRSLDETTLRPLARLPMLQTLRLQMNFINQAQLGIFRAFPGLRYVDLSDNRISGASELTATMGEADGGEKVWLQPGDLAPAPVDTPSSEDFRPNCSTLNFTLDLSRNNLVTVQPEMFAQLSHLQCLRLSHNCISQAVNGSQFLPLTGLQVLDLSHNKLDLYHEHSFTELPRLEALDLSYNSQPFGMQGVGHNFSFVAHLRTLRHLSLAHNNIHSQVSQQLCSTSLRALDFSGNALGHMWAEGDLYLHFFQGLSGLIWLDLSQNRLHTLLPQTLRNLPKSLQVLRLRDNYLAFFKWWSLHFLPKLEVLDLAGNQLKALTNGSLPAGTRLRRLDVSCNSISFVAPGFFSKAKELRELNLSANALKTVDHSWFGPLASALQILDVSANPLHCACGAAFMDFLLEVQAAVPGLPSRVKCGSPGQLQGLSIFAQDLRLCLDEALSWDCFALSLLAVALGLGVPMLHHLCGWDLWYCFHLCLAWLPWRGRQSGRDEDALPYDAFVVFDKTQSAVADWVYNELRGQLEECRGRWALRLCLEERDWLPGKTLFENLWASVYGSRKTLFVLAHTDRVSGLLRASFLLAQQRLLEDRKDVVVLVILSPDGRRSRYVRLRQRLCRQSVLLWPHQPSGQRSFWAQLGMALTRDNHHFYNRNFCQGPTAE
In short: as §1

[4] = 22 hour incubation, reporter readout

Cc1cc(-c2ccc(CN3CCN(C(C)C)CC3)cc2)cc2c1nc(-c1ccc(S(C)(=O)=O)cc1)n2C [Example 413, 6-(4-((4-isopropylpiperazin-1-yl)methyl)phenyl)-1,4-dimethyl-2-(4-(methylsulfonyl)phenyl)-1H-benzo[d]imidazole]
IC50 [1]: 5.4 µM | IC50 [2]: > 50 µM | IC50 [3, 4]: 1.9 µM | IC50 ([3]; read-out: TLR 9 IC50): 1.88 µM

Cc1ccc(CN2CCC(c3cc(C)c4nc(-c5ccc(S(C)(=O)=O)cc5)n(C)c4c3)CC2)cn1 [Example 419, 1,4-dimethyl-6-(1-((6-methylpyridin-3-yl)methyl)piperidin-4-yl)-2-(4-(methylsulfonyl)phenyl)-1H-benzo[d]imidazole]
IC50 [1]: 8.4 µM | IC50 [2]: 2.3 µM | IC50 [3, 4]: 2.1 µM | IC50 ([3]; read-out: TLR 9 IC50): 2.14 µM

CCOP(=O)(OCC)c1ccc(-c2nc3c(C)cc(C4CCN(C5CCN(C(C)C)CC5)CC4)cc3n2C)cc1 [Example 420, diethyl(4-(6-(1′-isopropyl-[1,4′-bipiperidin]-4-yl)-1,4-dimethyl-1H-benzo[d]imidazol-2-yl)phenyl)phosphonate]
IC50 [1]: 42.2 µM | IC50 [2]: > 50 µM | IC50 [3, 4]: 0.14 µM | IC50 ([3]; read-out: TLR 9 IC50): 0.136 µM

CCOP(=O)(OCC)c1ccc(-c2nc3c(C)cc(C4CCN(C5CCN(CC(C)C)CC5)CC4)cc3n2C)cc1 [Example 421, diethyl(4-(6-(1′-isobutyl-[1,4′-bipiperidin]-4-yl)-1,4-dimethyl-1H-benzo[d]imidazol-2-yl)phenyl)phosphonate]
IC50 [1]: > 50 µM | IC50 [2]: 0.7 µM | IC50 [3, 4]: 0.14 µM | IC50 ([3]; read-out: TLR 9 IC50): 0.139 µM

CCOP(=O)(OCC)c1ccc(-c2nc3c(C)cc(C4CCN(C5CCN(C6CC6)CC5)CC4)cc3n2C)cc1 [Example 422, diethyl(4-(6-(1′-cyclopropyl-[1,4′-bipiperidin]-4-yl)-1,4-dimethyl-1H-benzo[d]imidazol-2-yl)phenyl)phosphonate]
IC50 [1]: 27.3 µM | IC50 [2]: 4 µM | IC50 [3, 4]: 0.18 µM | IC50 ([3]; read-out: TLR 9 IC50): 0.18 µM

From patent US12492188B2, “1H-benzo[D]imidazole derivatives as TLR9 inhibitors for the treatment of fibrosis” (BRISTOL-MYERS SQUIBB COMPANY, priority 2020, dated 2025)
